Experimental data taken from patent US20090238895A1, “NUTRITIONAL AND/OR PHARMACEUTICAL PREPARATION FOR USE IN PROPHYLAXIS AND TREATMENT OF DISTURBANCES IN MICROELEMENTS ABSORPTION FROM THE ALIMENTARY CANAL” (priority 2004, published 2009).
Marks after values point to notes of the source that are not given here.

Experiments:
[1] = Iron concentration in plasma of young pigs after FeSO4 or FeSO4/AKG infusion to the duodenum or pelvic intestine; type: in vivo
Procedure: (§1) Investigations were performed on 3 piglets of the Swedish race Landrace weighting 30-35 kg. Animals originated from the university herd (Swedish Agricultural University, Dept. of Agricultural Biosystems and Technology, Lund). Young pigs were fed 2 times a day at the same time (9:00-10:00 a.m. and 3:00-4:00 p.m.) with a standard fodder (Vaxfor, Lantmanen, Sweden) with a daily dose 50 g/kg body weight. They were watered ad libitum. Animals were held separately in boxes with automatically regulated 12 hour's periods of day and night.
(§2) Sterile catheters and T-fistulas used in the experience were made of silicone tubes with maintained medical standards (Dow Cornning). Piglets were starved for 9-12 hours before the operation. Before the operation animals received a sedative drug—azoperone (Stresnil, 2 mg/kg body weight). Then the inhalation induction of general anaesthesia was performed (Fluothan 0.5-1.5 vol %). […] With the catheters inserted to the portal vein and the common carotid-artery the blood samples for later analyses were collected.
Two incisions were done: one 10-15 cm close to the right hunger fossa, second 2-3 cm between the brachial joint and the angle of the mandible. Duodenal fistula was placed behind the opening of the pancreatic duct to the duodenum. Pelvic T-fistula (int. diameter 3.18 mm and ext. diameter 4.64 mm—both fistulas) was introduced to the pelvic intestine at the end of the caeco-iliac ligament.
The catheter to the portal vein (int. diameter 0.64 mm and ext. diameter 1.19 mm) was introduced through the liver and fixed with several sutures (0-2 Catgut, Ethicon, England). The catheter placed in portal vein and both intestinal fistulas were brought out the body in the line of incision. After dissection of zygomatic vein the catheter was introduced in the cardiac direction on the depth of 7 cm. The vein was closed with the double ligature (0-3 silicone-, Ethicon, England) and brought outside the body with the surgical needle in the dorsal part of the neck. The abdomen and the neck wounds were closed with two layers of sutures: the peritoneum (only in the abdomen wound) and muscles were closed with twisted suture (0-0 Catgut , Ethicon), the skin was closed with the interrupted sutures (Suturamid 2-0, Ethicon). After operation young pigs were placed in separate boxes. During 5 postoperative days animals were fed twice a day, they received water ad libitum. The operation was performed by the skilled surgeon in accordance with surgical techniques.
Before infusion animals were starved. The daily dose of food was given during evening feeding at 3:00 p.m. All infusions were started at 9:00 a.m. Blood samples were taken 30 minutes before and 15, 30, 60 and 120 minutes after the infusion. 2. Infusions composition.

[2] = AKG concentration in plasma of young pigs after AKG or FeSO4/AKG infusion to the duodenum or pelvic intestine; type: in vivo; details: FeSO4 infused with AKG
Procedure: as §1, §2
Two incisions were done: one 10-15 cm close to the right hunger fossa, second 2-3 cm between the brachial joint and the angle of the mandible. Duodenal fistula was placed behind the opening of the pancreatic duct to the duodenum. […]

Q: Which “iron concentration in plasma” value ([1]; infusion to pelvic intestine, portal vein, 15 min) does the source give for O=S(=O)([O-])[O-].[Fe+2] [FeSO4] here?
A: 18.00 ± 5.41^a μmol/l

Q: What about the “iron concentration in plasma” value ([1]; infusion to pelvic intestine, portal vein, 30 min) of the same compound?
A: 17.67 ± 6.53^a μmol/l

Q: What about the “iron concentration in plasma” value ([1]; infusion to pelvic intestine, portal vein, 60 min) of the same compound?
A: 16.83 ± 6.81^a μmol/l

Q: And the “iron concentration in plasma” value ([1]; infusion to pelvic intestine, portal vein, 120 min)?
A: 15.33 ± 7.18^a μmol/l

Q: What about the “iron concentration in plasma” value ([1]; infusion to pelvic intestine, portal vein, -30 min (before infusion)) of the same compound?
A: 19.17 ± 8.69^a μmol/l

Q: And the “iron concentration in plasma” value ([1]; infusion to pelvic intestine, zygomatic vein, 15 min)?
A: 18.83 ± 6.81^a μmol/l

Q: What about the “iron concentration in plasma” value ([1]; infusion to pelvic intestine, zygomatic vein, 30 min) of the same compound?
A: 18.83 ± 6.81^a μmol/l

Q: And the “iron concentration in plasma” value ([1]; infusion to pelvic intestine, zygomatic vein, 60 min)?
A: 18.00 ± 7.47^a μmol/l

Q: And the “iron concentration in plasma” value ([1]; infusion to pelvic intestine, zygomatic vein, 120 min)?
A: 15.67 ± 6.43^a μmol/l

Q: And the “iron concentration in plasma” value ([1]; infusion to pelvic intestine, zygomatic vein, -30 min (before infusion))?
A: 19.67 ± 7.97^a μmol/l

Q: And the “iron concentration in plasma” value ([1]; infusion to the duodenum, portal vein, 15 min)?
A: 28.5 ± 4.09^b μmol/l

Q: What about the “iron concentration in plasma” value ([1]; infusion to the duodenum, portal vein, 30 min) of the same compound?
A: 37.67 ± 5.3^cb μmol/l

Q: And the “iron concentration in plasma” value ([1]; infusion to the duodenum, portal vein, 60 min)?
A: 40.17 ± 4.62^c μmol/l

Q: What about the “iron concentration in plasma” value ([1]; infusion to the duodenum, portal vein, 120 min) of the same compound?
A: 37.17 ± 4.37^c μmol/l

Q: And the “iron concentration in plasma” value ([1]; infusion to the duodenum, portal vein, -30 min (before infusion))?
A: 16.33 ± 1.04^a μmol/l

Q: And the “iron concentration in plasma” value ([1]; infusion to the duodenum, zygomatic vein, 15 min)?
A: 29.17 ± 5.51^b μmol/l

Q: And the “iron concentration in plasma” value ([1]; infusion to the duodenum, zygomatic vein, 30 min)?
A: 39.50 ± 4.09^c μmol/l

Q: What about the “iron concentration in plasma” value ([1]; infusion to the duodenum, zygomatic vein, 60 min) of the same compound?
A: 43.0 ± 4.82^c μmol/l

Q: What about the “iron concentration in plasma” value ([1]; infusion to the duodenum, zygomatic vein, 120 min) of the same compound?
A: 39.5 ± 3.5^c μmol/l

Q: And the “iron concentration in plasma” value ([1]; infusion to the duodenum, zygomatic vein, -30 min (before infusion))?
A: 18.2 ± 1.53^a μmol/l

Q: What about the “effect on absorption of AKG from the intestine into the blood” value [2] of the same compound?
A: increases the absorption of AKG from the intestine into the blood
